One series has as its system PBMC cells. The experiment in a line: Toxicity test of compounds on PBMC cells (MTT). The series is classed as cell-based. A digest of the protocol: (§1)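 MTT read-out (570 nm, 630 nm reference) after 3-day culture of HOS-CD4-CCR5 cells at 4×10^5/ml or 7-day culture of PHA-activated PBMC at 5×10^6/ml, with fresh medium added on day 3. Compounds were tested as six 5-fold dilutions in triplicate, in 10% FBS medium at 37 °C, 5% CO2.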

In another series the test system is HOS-CD4-CCR5 cells. The experiment in a line: Toxicity test of compounds on HOS-CD4-CCR5 cells (MTT). It is filed as cell-based. As to conditions: HOS-CD4+-CCR5 cells (Table 8). A digest of the protocol:
as §1

Series [1] can be described thus: Pharmacokinetic experiment of rats. As to conditions: for AUC(0-t) / AUC(0-inf) / Cmax / MRT / Tmax / bioavailability: male, rat, plasma.
Protocol: The administration volume was 10 mL/kg and drug was formulated with DMSO/Tween 80/physiological saline (5:5:90, v/v/v). […] 2 h after dosing, the rats ate together.
At above time points, 0.3 ml of venous blood was taken from retrobulbar venous plexus of the rat and loaded into EDTA-2K anticoagulative tube. After centrifuged at 11000 rpm for 5 mm, the plasma was separated and frozen at −20° C. in a refrigerator.
The concentration of each compound in rat plasma was determined by LC/MS/MS.
(§3) The pharmacokinetic parameters after administration were calculated by using non-compartment model of WinNonlin 5.3 software (Pharsight Corporation, USA).
The subject of series [2] is Salmonella typhimurium strain TA100. The experiment in a line: Bacterial reverse mutation assay TA100 (-S9). It is filed as cell-based. Conditions: for mutagenic effect on Salmonella typhimurium strain TA100: -S9, 1-5000 μg/dish. The procedure: (§2) The mutagenic effects of compounds 18 and 22 of the present invention on Salmonella typhimurium strains TA98 and TA100 in non-metabolic activation (-S9) condition were determined. Two strains, TA98 and TA100 were chosen in bacterial reverse mutation assay for compounds 18 and 22. 9 doses containing […], negative and positive controls were set in experiments. 3 dishes were used for each dose. The experiment was carried out under -S9 condition.

The test system of series [3] is Salmonella typhimurium strain TA98. Description: Bacterial reverse mutation assay TA98 (-S9). The series is classed as cell-based. Conditions: for mutagenic effect on Salmonella typhimurium strain TA98: -S9, 1-5000 μg/dish. How it is done:
as §2

Series [4] in a line: Four days subacute toxicity test of rats. The series is classed as in vivo. As to conditions: SD rats; for Clinical observations, clinical pathology detection (hematology and serum biochemistry) and macroscopic morphological observation / weight gain compared with vehicle control group: gavage 4 days, 100 and 1000 mg/kg; for weight gain compared with vehicle control group: some male and female animals; for NOAEL at 4 days: both sexes, rat, in vivo, po, gavage for 4 days, read-out: No Observed Adverse Effect Level (NOAEL). An excerpt: After compounds 18 and 22 of the present invention were administrated to SD rats through gavage for 4 consecutive days, the toxic reaction was preliminarily assessed to confirm the possible target organ of toxic reaction.
One vehicle control group was set. Each group contained four rats including two male rats and two female rats. During the experiment stage, the animals were daily clinically observated. The body weight was regularly measured. On the 5th day, all animals were subject to pathological examination and gross anatomy.

The nature of series [5]: Pharmacokinetic experiment on Beagles.
Protocol: The administration volume was 2 mL/kg and 1 mL/kg, respectively. The compound was suspended in 20% PEG400 (4:96) for gavage and formulated in DMSO/Tween 80/physiological saline (5:1:94, v/v/v) for intravenous injection. […] 2 h after dosing, all of Beagles ate together.
At above time points, 0.6 ml venous blood was taken from limb venous and loaded into EDTA-2K anticoagulative tube. After centrifuged at 11000 rpm for 5 mm, the plasma was separated and frozen at −20° C. in a refrigerator.
as §3
Where [6] appears, read: male, beagle, dog, plasma, iv, 3 mg/kg.
The mark [7] stands for this setting: male, beagle, dog, plasma, po, 15 mg/kg.

Each structure is given as a SMILES string.

What is called CC50 is the concentration at which the toxic effect on the cells reaches its halfway point. Regarding `Cc1ccc([C@H](CCN2C3CCC2CC(n2c(C)nnc2C(C)C)C3)NC(=O)C2CCC(F)(F)CC2)s1` (stereo partly drawn) [Compound 29, 4,4-difluoro-N-[(1S)-3-[exo-3-(3-isopropyl-5-methyl-4H-1,2,4-triazol-4-yl)-8-azabicyclo[3.2.1]octane-8-yl]-1-(5-methylthiophen-2-yl)propyl]cyclohexane-1-carboxamide], the “CC50” value with PBMC cells (PBMC cells (Table 5)), with PBMC cells (PBMC cells (Table 6)) and in the series with HOS-CD4-CCR5 cells was above 200 µg/mL each time.
As a reminder, the AUC(0-t) is the area under the concentration-time curve up to a stated or last time point. The low end stands for low exposure, the high end for high exposure. The term AUC(0-inf) denotes the area under the concentration-time curve extrapolated to infinity. A high value points to more exposure. For orientation: Cmax means the maximum level reached in the sampled fluid or tissue. By MRT is commonly meant the average time that molecules of a dose stay in the body. As usually defined, the Tmax is the time from dosing to the highest level. One may read the bioavailability as dose-corrected exposure relative to a reference, in per cent. The low end stands for little systemic uptake, the high end for much systemic uptake. Take `Cc1nnc(C(C)C)n1C1CCN(CC[C@H](NC(=O)C2CCCC2)c2cccs2)CC1` [Compound 17, N-[(1S)-3-[4-(3-isopropyl-5-methyl-4H-1,2,4-triazol-4-yl)-piperidin-1-yl]-1-(thiophen-2-yl)propyl]cyclopentane-1-carboxamide]: in series [1] (intravenous, 10 mg/kg), the AUC(0-t) is 374 ng·h/mL. Moreover, in series [1] (iv, 10 mg/kg), the AUC(0-inf) was determined as 394 ng·h/mL, the AUC(0-t) was 374 ng·h/mL, the highest concentration (Cmax) is 246 ng/mL and the MRT worked out at 1.42 h. Further, the Tmax in series [1] (iv, 10 mg/kg) turned out to be 0.25 h. In series [1] (oral), this compound returned a bioavailability of 46.6%. In series [1] (po, 20 mg/kg), this compound yielded an AUC(0-inf) of 364 ng·h/mL, an AUC(0-t) of 348 ng·h/mL, a Cmax of 122 ng/mL and an MRT of 2.31 h. Besides, in series [1] (po, 20 mg/kg), the Tmax was 0.5 h and the bioavailability worked out at 46.6%. Also, the “AUC0-t ng/mL * h” value in series [1] (rats, gavage, 20 mg/kg) stood at 347.9 ng·h/mL. Also, the “CLz” value in series [1] (rats, vein, 10 mg/kg) was found to be 423 mL/min/kg.
By NOAEL is commonly meant the highest tested level that showed no adverse finding. Broadly, the half-life is the time in which the quantity being followed falls by half. Regarding `Cc1nnc(C(C)C)n1C1CC2CCC(C1)N2CC[C@H](NC(=O)C1CCC(F)(F)CC1)c1ccsc1` (stereo partly drawn) [Compound 22, 4,4-difluoro-N-[(1S)-3-[exo-3-(3-isopropyl-5-methyl-4H-1,2,4-triazol-4-yl)-8-azabicyclo[3.2.1]octane-8-yl]-1-(thiophen-3-yl)propyl]cyclohexane-1-carboxamide], the “mutagenic effect on Salmonella typhimurium strain TA100” value in series [2] is recorded as “no mutagenic effect”. The “number of revertant colonies (Mean ± SD)” value in series [2] (TA100, -S9, 1 μg/dish) amounted to 107 ± 16.7; in series [2] (TA100, -S9, 3 μg/dish) it was 109 ± 9.3; in series [2] (TA100, -S9, 10 μg/dish), 112 ± 10.7; in series [2] (TA100, -S9, 30 μg/dish), 90 ± 11.0; in series [2] (TA100, -S9, 100 μg/dish), 97 ± 4.6; in series [2] (TA100, -S9, 300 μg/dish), 102 ± 2.9. For the same compound, the “number of revertant colonies (Mean ± SD)” value in series [2] (TA100, -S9, 1000 μg/dish) stood at 90 ± 6.5; in series [2] (TA100, -S9, 3000 μg/dish) it was 86 ± 13.1; in series [2] (TA100, -S9, 5000 μg/dish), 109 ± 17.5; in series [3] (TA98, -S9, 1 μg/dish), 23 ± 3.2; in series [3] (TA98, -S9, 3 μg/dish) it was 24 ± 3.6; in series [3] (TA98, -S9, 10 μg/dish), 23 ± 2.6. In addition, the “number of revertant colonies (Mean ± SD)” value is 21 ± 5.2 in series [3] (TA98, -S9, 30 μg/dish); 23 ± 6.7 in series [3] (TA98, -S9, 100 μg/dish); 23 ± 6.5 in series [3] (TA98, -S9, 300 μg/dish); 19 ± 6.4 in series [3] (TA98, -S9, 1000 μg/dish); 22 ± 5.0 in series [3] (TA98, -S9, 3000 μg/dish); 25 ± 7.2 in series [3] (TA98, -S9, 5000 μg/dish). For the same compound, the “mutagenic effect on Salmonella typhimurium strain TA98” value in series [3] is “no mutagenic effect”. Besides, the “Clinical observations, clinical pathology detection (hematology and serum biochemistry) and macroscopic morphological observation” value in series [4] is on record as “no significant drug-related changes”. Besides, in series [4], the “weight gain compared with vehicle control group” value was “increased slowly or exhibited negative growth”. Besides, the NOAEL at 4 days in series [4] is 1000 mg/kg. For the same compound, the AUC(0-t) in series [5] amounted to 10900 ng·h/mL; in series [5] (male, beagle, dog, plasma, intravenous, 3 mg/kg), 10900 ng·h/mL; in series [5] (setting [7]), 5430 ng·h/mL. In series [5] (Beagles, gavage, 15 mg/kg), the “AUC0-t ng/mL * h” value was found to be 5426 ng·h/mL. Moreover, the Tmax h in series [5] (Beagles, gavage, 15 mg/kg) was found to be 0.833 h. Further, the t1/2 h in series [5] (Beagles, gavage, 15 mg/kg) turned out to be 3.89 h. The “CLz” value in series [5] (Beagles, vein, 3 mg/kg) turned out to be 4.63 mL/min/kg. Further, the figures for the total exposure AUC(0-inf) in series [5] (setting [6]) and in series [5] (setting [7]) were 10900 ng·h/mL and 5520 ng·h/mL, respectively. In addition, the mean residence time MRT in series [5] (setting [6]) was found to be 1.65 h; in series [5] (setting [7]) it was 2.11 h. Besides, the half-life was 1.73 h in series [5] (setting [6]) and 3.89 h in series [5] (setting [7]). In addition, the bioavailability in series [5] (male, beagle, dog, plasma, oral) was determined as 9.98%; in series [5] (setting [7]) it was 9.98%. This compound also had a Cmax in series [5] (setting [7]) of 4610 ng/mL. The Tmax in series [5] (male, beagle, dog, plasma, po, 15 mg/kg, Tmax h, Beagles, gavage) was 0.833 h. Moreover, the “CC50” value in the series with HOS-CD4-CCR5 cells is above 800 µg/mL.
As for `Cc1nnc(C(C)C)n1C1CC2CCC(C1)N2CC[C@H](NC(=O)C1CCCC1)c1cccs1` (stereo partly drawn) [Compound 18, N-[(1S)-3-[exo-3-(3-isopropyl-5-methyl-4H-1,2,4-triazol-4-yl)-8-azabicyclo[3.2.1]octane-8-yl]-1-(thiophen-2-yl)propyl]cyclopentane-1-carboxamide], in series [2], the “mutagenic effect on Salmonella typhimurium strain TA100” value is reported as “no mutagenic effect”. Moreover, the “number of revertant colonies (Mean ± SD)” value in series [2] (TA100, -S9, 1 μg/dish) was determined as 116 ± 9.0; in series [2] (TA100, -S9, 3 μg/dish) it was 96 ± 10.0; in series [2] (TA100, -S9, 10 μg/dish) it was 95 ± 13.1; in series [2] (TA100, -S9, 30 μg/dish) it was 100 ± 8.3; in series [2] (TA100, -S9, 100 μg/dish) it was 88 ± 0.6; in series [2] (TA100, -S9, 300 μg/dish), 91 ± 18.2. Besides, the “number of revertant colonies (Mean ± SD)” value in series [2] (TA100, -S9, 1000 μg/dish) stood at 106 ± 17.6; in series [2] (TA100, -S9, 3000 μg/dish), 108 ± 6.9; in series [2] (TA100, -S9, 5000 μg/dish), 95 ± 7.2; in series [3] (TA98, -S9, 1 μg/dish) it was 24 ± 5.0; in series [3] (TA98, -S9, 3 μg/dish), 23 ± 2.6; in series [3] (TA98, -S9, 10 μg/dish), 20 ± 2.3. The “number of revertant colonies (Mean ± SD)” value in series [3] (TA98, -S9, 30 μg/dish) was determined as 19 ± 1.5; in series [3] (TA98, -S9, 100 μg/dish), 15 ± 4.6; in series [3] (TA98, -S9, 300 μg/dish), 20 ± 4.2; in series [3] (TA98, -S9, 1000 μg/dish), 18 ± 1.5; in series [3] (TA98, -S9, 3000 μg/dish) it was 21 ± 1.5; in series [3] (TA98, -S9, 5000 μg/dish), 20 ± 4.9. Further, in series [3], the “mutagenic effect on Salmonella typhimurium strain TA98” value is recorded as “no mutagenic effect”. For the same compound, the “Clinical observations, clinical pathology detection (hematology and serum biochemistry) and macroscopic morphological observation” value in series [4] is on record as “no significant drug-related changes”. For the same compound, the “weight gain compared with vehicle control group” value in series [4] was “increased slowly or exhibited negative growth”. Besides, the NOAEL at 4 days in series [4] came out at 1000 mg/kg.
